pIC50: −log10 of the molar value. Like-named read-outs stand apart in the source and are kept apart here. Marks after values point to notes of the source that are not given here.

In data set [1] the target is T1, aldose reductase (Sus scrofa, UniProt P80276).
T1 construct: swine lenses freeze-stored at -80°C were homogenized with distilled water; from tissue; host or cells: swine lens
Nature of the data set: Aldose reductase inhibitory action (method of S. Hayman et al., absorbance change at 340 nm). It is filed as biochemical, swine. On the procedure:
That is, swine lenses freeze-stored at -80°C were homogenized with distilled water and cetrifuged at 10,000 G for 15 minutes. The supernatant was prepared into a 40% ammonium sulfate solution and subjected to cetrifugation at 10,000 G for 10 minutes.
The activity of aldose reductase was determined by the above-mentioned method of S. Hayman et al. That is, the above-mentioned enzyme solution (25 µl) and a drug solution (25 µl) dissolved in 1% DMSO at various concentrations were added to a 40 mM phosphate buffer (200 µl, pH 6.2) containing final concentrations of 0.4 M lithium sulfate, 0.1 mM NADPH (reduced type nicotinamide adenine dinucleotide phosphate) and 3 mM dl-glyceraldehyde as a substrate. […] The test drug number indicates the example number to be mentioned later. […]

Data set [2] relates to sorbitol accumulation in tissues. Nature of the data set: Inhibitory action on sorbitol accumulation in tissues of rats with experimental diabetes (streptozotocin). Type of data set: in vivo, Sprague-Dawley rats. Conditions: percent of control (100%), oral at 4, 8 and 24 hours after streptozotocin, Example 9 at 10 mg/kg, EPALRESTAT at 30 mg/kg, 3 hours after final administration; for Sorbitol accumulation, nerve: sciatic nerve. The protocol:
Sprague-Dawley rats (male, 6 weeks old, 5-6 per group) were fasted for 18 hours and injected with streptozotocin (SIGMA, 60 mg/kg) via the tail vein under etherization to prepare rats with diabetes.
The test drugs were orally administered at 4, 8 and 24 hours after the injection of streptozotocin. The compound of Example 9 was administered at 10 mg/kg and EPALRESTAT was administered at 30 mg/kg as a 0.5% carboxymethylcellulose suspension, respectively. During the administrations, the rats were raised under free access to feed and water and the sorbitol content in the tissues (erythrocytes, sciatic nerve, lens) was determined 3 hours after the final administration, according to the enzyme method of H.Y. Bergmeyer et al. [Methods of Enzymatic Analysis, vol. 3, 1323-1330 (1974)] with the use of SDH (sorbitol dehydrogenase) and NAD (β-nicotinamide adenine dinucleotide). The results (sorbitol accumulation) are expressed in percent (%) relative to the value of a control group administered with a 0.5% carboxymethylcellulose solution (solvent) instead of the drug, which was taken as 100%.

Data set [3] concerns ICR mice. As to the kind of experiment: Acute toxicity of a single oral dose. Type of data set: in vivo. Conditions: 300 mg/kg single oral dose, male ICR mice, observation for 14 days. On the procedure: Normal ICR mice (male, 7 weeks old, 5 per group) were fasted for 18 hours and the compound (300 mg/kg) of Example 9 was orally administered as a 0.5% carboxymethylcellulose suspension. To the control group, a 0.5% carboxymethylcellulose solution alone was orally administered and observation was continued for 14 days thereafter, during which period the mice were allowed to take feed and water freely.

[4] abbreviates: swine lens enzyme, 3 mM dl-glyceraldehyde as substrate, 0.1 mM NADPH, pH 6.2, 25°C, read-out: IC₅₀.

For `O=C(O)CC1Sc2ncccc2N(Cc2nc3c(F)c(F)ccc3s2)C1=O` (stereo not shown) [Compound of Ex.10, 2-[4-(4,5-Difluorobenzothiazol-2-yl)methyl-3-oxo-3,4-dihydro-2H-pyrido[2,3-b][1,4]thiazin-2-yl]acetic acid], in data set [1] (setting [4]), the pIC50 was 7.92.

In the case of `O=C(O)CC1Sc2ncccc2N(Cc2nc3c(Cl)c(Cl)ccc3s2)C1=O` (stereo not shown) [Compound of Ex.12, 2-[4-(4,5-Dichlorobenzothiazol-2-yl)methyl-3-oxo-3,4-dihydro-2H-pyrido[2,3-b][1,4]thiazin-2-yl]acetic acid], the pIC50 in data set [1] (setting [4]) is 7.92.

With `O=C(O)CC1Sc2cnccc2N(Cc2nc3c(F)c(F)cc(F)c3s2)C1=O` (stereo not shown) [Compound of Ex.14, 2-[4-(4,5,7-Trifluorobenzothiazol-2-yl)methyl-3-oxo-3,4-dihydro-2H-pyrido[3,4-b][1,4]thiazin-2-yl]acetic acid], the pIC50 in data set [1] (setting [4]) was 7.92.

Regarding `O=C(O)CC1Sc2ncccc2N(Cc2nc3c(F)c(F)cc(F)c3s2)C1=O` (stereo not shown) [Compound of Ex. 9, 2-[4-(4,5,7-Trifluorobenzothiazol-2-yl)methyl-3-oxo-3,4-dihydro-2H-pyrido[2,3-b][1,4]thiazin-2-yl]acetic acid], the pIC50 in data set [1] (setting [4]) is 7.96. In data set [2], the “Sorbitol accumulation, erythrocytes” value was 59.0* %; the “Sorbitol accumulation, lens” value is 66.2* %; the “Sorbitol accumulation, nerve” value is recorded as 3.3* %. Besides, the death cases entry in data set [3] is given as “no death case”. The body weight transition entry in data set [3] (compared with control group) is listed as “showed transition in the same manner as in the control group”.

In data set [1], `CC(/C=C1\SC(=S)N(CC(=O)O)C1=O)=C\c1ccccc1` [EPALRESTAT, reference compound] showed a pIC50 of 7.68. In addition, in data set [2], the “Sorbitol accumulation, erythrocytes” value is 66.5%; the “Sorbitol accumulation, lens” value was 89.1%; the “Sorbitol accumulation, nerve” value is on record as 99.9%.

Values taken from EP0644194A1, “PYRIDOTHIAZINEACETIC ACID COMPOUND, PROCESS FOR PRODUCING THE SAME, AND USE THEREOF” (THE GREEN CROSS CORPORATION, priority 1993, dated 1994).
